# Reference: patent US20220323406A1, “METHODS AND COMPOSITIONS FOR DIFFERENTIATING STEM CELLS” (Massachusetts Institute of Technology, priority 2019, published 2022)
# Tests used:
# [1] = test system: ENR+CD organoids (ISC to Paneth cell differentiation); assay: Primary screen: basal (non-stimulated) lysozyme secretion LYZ.NS, 2.5-D 384-well ENR+CD organoid differentiation; format: cell-based, mouse; conditions: for Dose.FC.LYZ.NS (log2 fold change) / Z.LYZ.NS (standard z score): primary screen
# Source text: (§1) High-throughput screening.
# [2] = test system: ENR+CD organoids (ISC to Paneth cell differentiation); assay: Primary screen: CCh-stimulated lysozyme secretion LYZ.S, 2.5-D 384-well ENR+CD organoid differentiation; format: cell-based, mouse; conditions: primary screen
# Source text: as §1
# [3] = test system: Paneth cells in ENR+CD organoids; assay: Flow cytometry of 3D-cultured intestinal organoids, Paneth cells (lysozyme-positive, CD24-positive); format: cell-based, mouse
# Source text: Flow cytometry analysis (3D culture). ISC-enriched organoids cultured in 3D Matrigel with ENRCV media were passaged to 24-well plate in 3D Matrigel with ENRCV. At day zero, media were replaced to ENRCD with or without indicated compounds, and media were replaced every other day. At day six, cells were washed with basal media, and then harvested from Matrigel by mechanical disruption in TrypLE Express (ThermoFisher, 12605010) to remove Matrigel and dissociate organoids to single cells. After vigorous pipetting and incubation at 37° C. for 20 min, dissociated organoids were strained through a 35 μm cell strainer into a tube (Falcon, 352235). […] Cell pellets were resuspended in FACS buffer (2% FBS in PBS), and then transferred to an ultra low-bind 96-well plate (Corning, 7007). Cells were stained with Zombie-violet viability dye (BioLegend, 423107) at 100× for viability staining and/or antibody staining solution. FITC-conjugated antibody for lysozyme (Dako, F0372) and APC-conjugated antibody for CD24 (BioLegend, 138505) were used at 100× dilution. Flow cytometry was performed using an LSR Fortessa (BD; Koch Institute Flow Cytometry Core at MIT). The data were analyzed using FlowJo v10 software.
# The results of primary and secondary screening reflect a mixture of potential effects arising from small molecule treatment which may result in increases in total LYZ secretion. This includes contributions from enhanced Paneth cell differentiation, altered Paneth cell activity and changes in total cell number concurrent with differentiation. To better inform how the 6 compounds identified in the screen increased total secreted LYZ, and to isolate only those which enhance Paneth differentiation robustly, Applicants next utilized flow cytometry to measure the changes in Paneth cell representation within the treated organoids. […] Single live cells were selected by several gating strategies and Paneth cells were identified as lysozyme-high, CD24-mid, side scatter-high (SSC-high) (FIG. 27E). […] To evaluate whether the culture media supplements C and D may alter the effects of the 6 hits, Applicants also performed lysozyme assay in the canonical ENR culture condition in 3-D (because Paneth cells exist in an immature state within ENR, Applicants were unable to robustly quantify Paneth cell number via flow cytometry).
# Flow cytometry. ISC-enriched organoids in 3D Matrigel culture were passaged to a 48-well plate and induced differentiation for 6 days by ENR+CD media containing DMSO or each drug indicated in the figures. DMSO- or drug-containing media were changed every other day. On day 6, cells were washed twice with basal media, then harvested from Matrigel by the mechanical disruption in TrypLE Express (Thermo, #12605010) to remove Matrigel and dissociate organoids to single cells. After vigorous pipetting and incubation at 37° C. for 15 min, the cell solution was diluted twice with basal media and centrifuged at 300 ref for 3 min. The cell pellet was resuspended in FACS buffer (PBS containing 2% FBS) and replaced into a 96-well Clear Round Bottom Ultra-Low Attachment Microplate (Corning, #7007). The cell solution was centrifuged again at 300 rcf for 3 min at 4° C. to pellet the cells. Cells were stained with Zombie-violet dye (BioLegend, #423113) at 100× for viability staining for 20 min at RT in the dark. After centrifugation for 3 min at 300 rcf, cells were fixed in fixation buffer (FACS buffer containing 1% formaldehyde (Thermo, #28906)) for 15 min on ice in the dark. Cells were centrifuged again for 3 min at 300 rcf and blocked with staining buffer (FACS buffer containing 0.5% Tween20 (Sigma, P2287)) for 15 min at RT in the dark. Pelleted cells by the centrifugation for 3 min at 300 rcf are stained with FITC-conjugated anti-lysozyme antibody (Dako, F0372) and APC-conjugated anti-CD24 antibody (Biolegend, #138505) at 100× for 45 min at RT in the dark.
# [4] = test system: 3D-cultured intestinal organoids (ENR or ENR+CD); assay: Lysozyme secretion assay (3D culture), normalized to ATP; format: cell-based, mouse
# Description: Lysozyme assay (3D culture). ISC-enriched organoids cultured in 3D Matrigel with ENRCV media were passaged to 48-well plate in 3D Matrigel with ENRCV. At day zero, media were replaced to ENR or ENRCD with or without indicated compounds, and media were replaced every other day. At day six, cells were washed twice with basal media and treated with carbamylcholine chloride (Sigma, C4382) for 3 hours. Media were collected and lysozyme activity was measured by EnzChek Lysozyme Assay Kit (ThermoFisher, E22013).
# Lysozyme secretion assay. ISC-enriched organoids in 3D Matrigel culture were passaged to a 48- or 96-well plate and cultured with ENR or ENR+CD media containing DMSO or each drug for 6 days. DMSO- or drug-containing media were changed every other day. On day 6, cells were washed with basal media twice and treated with basal media with or without 10 μM carbamoylcholine chloride for 3 h in a CO2 incubator at 37° C. A part of the conditioned media was collected and used for lysozyme assay (Thermo, E-22013) following the manufacturer's instruction. The fluorescence was measured using excitation/emission of 485/530 nm. CellTiter-Glo 3D Reagent (Promega, G9681) was added afterward, and the cell culture plate was incubated on an orbital shaker at RT for 30 min to induce cell lysis and to stabilize the luminescent signal. The solution was replaced to a 96-well white microplate, and luminescent signals were measured by a microplate reader (infinite M200, Tecan). The standard curve was prepared by diluting recombinant ATP (Promega, P1132). For both assays, a polynomial cubic curve was fitted to a set of standard data, and each sample value was calculated on the Microsoft Excel.
# [5] = test system: Paneth, goblet and cycling cells of small intestine; assay: KPT-330 treatment in vivo (Example 1), histology of proximal and distal small intestine; parameters: cycling cell number, distal small intestine: dose or concentration left out as unconfirmed
# [6] = 2-day treatment within 6-day ENR+CD differentiation, read at day 6
compound,measurement,setting,value
O=C(/C=C\n1cnc(-c2cc(C(F)(F)F)cc(C(F)(F)F)c2)n1)NNc1cnccn1 [KPT-330],primary screen hit call (SSMD and z-scored FC cutoffs in both LYZ assays),"[1]; LYZ.NS and LYZ.S, 0.08-10 uM, 6 days ENR+CD",sole hit in their respective pathway
same,Dose.FC.LYZ.NS (log2 fold change),[1]; dose 0.08 uM,0.200
same,Z.LYZ.NS (standard z score),[1]; dose 0.08 uM,1.745
same,Dose.FC.LYZ.NS (log2 fold change),[1]; dose 0.40 uM,−0.266
same,Z.LYZ.NS (standard z score),[1]; dose 0.40 uM,−2.317
same,Dose.FC.LYZ.NS (log2 fold change),[1]; dose 2.00 uM,−0.280
same,Z.LYZ.NS (standard z score),[1]; dose 2.00 uM,−2.439
same,Dose.FC.LYZ.NS (log2 fold change),[1]; dose 10.00 uM,−0.284
same,Z.LYZ.NS (standard z score),[1]; dose 10.00 uM,−2.470
same,Dose.FC.LYZ.S (log2 fold change),[2]; dose 0.08 uM,0.259
same,Dose.FC.LYZ.S (log2 fold change),[2]; dose 0.40 uM,−0.282
same,Dose.FC.LYZ.S (log2 fold change),[2]; dose 2.00 uM,−0.390
same,Dose.FC.LYZ.S (log2 fold change),[2]; dose 10.00 uM,−0.423
same,"enrichment in mature Paneth cells, treatment day 0-2",[3]; [6],greatest enrichment in mature Paneth cells
same,"enrichment in mature Paneth cells, treatment day 2-4",[3]; [6],moderate enrichment
same,"enrichment in mature Paneth cells, treatment day 4-6 (by flow cytometry)",[3]; [6],no different than untreated
same,increase in mature Paneth cells at day 6 of differentiation,[3]; ENR+CD + KPT-330 vs control,2 fold
same,mature Paneth cell population within organoids,"[3]; most potent dose from 2.5-D screening, ENR+CD 6 days, 3-D culture",significantly enhanced the mature Paneth cell population
same,"enrichment, treatment day 4-6 (by LYZ secretion assay)",[4]; [6],minorly enriched
same,most effective dose among tested concentrations (LYZ secretion),"[4]; 6 days ENR+CD, basal and Cch-stimulated",160 nM
same,Paneth cell-specific activity (lysozyme assay) in conventional ENR culture,"[4]; ENR media, 3-D, 6 days",enhancing Paneth cell-specific activity
same,"Paneth cell activity (LYZ secretion, basal and Cch-stimulated), dose dependence","[4]; up to 160 nM, 6 days ENR+CD",enhanced Paneth cell activity in a dose-dependent manner
same,"Paneth cell number, distal small intestine",[5]; high dose,decreased Paneth cells
same,"cycling cell number, distal small intestine",[5]; low dose,significant increase in cycling cell number
same,"Paneth cell number, proximal small intestine","[5]; oral gavage, 1 week",no significant shift in Paneth cell number
same,effect by histology,"[5]; oral gavage, 1 week",pro-differentiation effect
same,"goblet cell numbers, proximal/distal small intestine","[5]; oral gavage, 1 week",no significant shift in goblet cell numbers
